Read-outs that look alike come from different tables or passages of the source.
Legend:
Pneumocystis carinii = test: Anti-Pneumocystis carinii test (induced Pneumocystis carinii infection in immunosuppressed mice), oral; format: in vivo; conditions: for Number of animals with organism after treatment/Number of animals treated, Giesma Stain: mice (Table 8); for Giemsa Stain Score / Silver stain Score / Giemsa Stain I/T (animals with organism after treatment/animals treated) / Silver stain I/T (animals with organism after treatment/animals treated): mice; for Giemsa Stain Score / Silver stain Score: mean score on 0 to 5+ scale
[1] = tested on: Plasmodium berghei KBG-173; format: in vivo; conditions: for Mice surviving 60 days/Mice infected and treated: P. berghei in mice; for Parasitemia Day 6: percentage of red blood cells with parasites, control 31.8
Method: Blood Schizontocidal Test (Trophozoite-Induced Plasmodium berghei Infection in mice University of Miami, Test System: Thompson Test
Drugs were mixed in 0.5% hydroxycellulose 0.1% Tween 80 and administered orally b.i.d. on days 3, 4 and 5 postinfection. CD-1 male or female mice, 5 weeks of age, were infected with 5×10^4 parasitized erythrocytes of Plasmodium berghei KBG-173 mm strain. Blood films were taken on day +6 and weekly thereafter until day +60. Parasitemias were calculated and SD90 value (dose suppressing 90% of the parasites in treated groups compared with the infected non-treated controls) on day +6 postinfection. Mortality data was tabulated for 60 days at which time all mice surviving that were blood film negative were considered cured.
[…] The activity of these compounds were compared with the untreated control and “racemate” which is a mixture of equal amount of each enantiomer X and Y. In untreated controls, death occurs within 8-9 days. Compounds which are effective against Plasmodium berghei infection increase the mean survival time of the infected animals when compared with the untreated controls. Mice that survive after thirty days and are free of parasites in blood are considered cured.
Efficacy of the drug is determined by the number of cures at the end of a 30 day period and the increase in mean survival time over the control (ΔMST). The effect of the test drugs also could be determined by the reduction of the parasitemia (percentage of the red blood cells detected with the parasites) over the untreated control on day 6, one day after the treatment is completed. Both these methods yield virtually identical results. If the dose of test compounds are inadequate, after initial clearance, residual parasites will multiply and relapses will occur within thirty days. The blood schizontocidal activities (suppressive antimalarial) of X, Y, and racemate against P. berghei in mice are shown in Table 11.

P. cynomolgi = conditions: rhesus monkey, cited from earlier work
[2] = tested on: trypanosome isolate EATRO Lab 110; test: Antitrypanosomal activity, trypanosome isolates grown as blood forms in HMI-18; format: cell-based, Trypanosoma; conditions: EATRO Lab 110, after 48 h, 20% horse serum, read-out: IC50
Method: (§1) Compounds were tested vs. trypanosome isolates grown as blood forms in HMI-18 (Hirumi H., Hirumi, K. 1989. Continuous Cuitivation of Trypanosoma brucei bloodstream forms in a medium containing a low concentration of serum portein without feeder cell layers. J. Parasitol. 75:985-989) containing 20% horse serum.

[3] = tested on: trypanosome isolate KETRI 243; test: as above; format: cell-based, Trypanosoma; conditions: KETRI 243, after 48 h, 20% horse serum; succinate; read-out: IC50
Method: as §1

[4] = tested on: trypanosome isolate KETRI 243As103; test: as above; format: cell-based, Trypanosoma; conditions: KETRI 243As103, after 48 h, 20% horse serum; succinate
Method: as §1

[5] = tested on: trypanosome isolate KETRI 269; test: as above; format: cell-based, Trypanosoma; conditions: KETRI 269, after 48 h, 20% horse serum, read-out: IC50
Method: as §1

[6] = tested on: Plasmodium berghei KBG-173; test: Prophylactic test, Plasmodium berghei infection in mice, oral; format: in vivo; conditions: single dose of 2 mg/kg
Source text: CD-I male or female mice, 5 weeks of age, were infected with 5×10^4 parasitized erythrocytes ot Plasmodium berghei KBG-173 mm strain. Blood films were taken on day +6 and weekly thereafter until day+30. […]

[7] = mice; cited from earlier work
[8] = oral 0.25 mg/kg/day (x21), succinate, 0.25 mg/kg/day
[9] = 0.25 mg/kg/day, 0.75 mg/kg total, succinate
[10] = 1 mg/kg/day, 3 mg/kg total, succinate
[11] = 4 mg/kg/day, 12 mg/kg total, succinate

SMILES	Giemsa Stain Score (Pneumocystis carinii; [8])	Silver stain Score (Pneumocystis carinii; [8])	Giemsa Stain I/T (animals with organism after treatment/animals treated) (Pneumocystis carinii; [8])	Silver stain I/T (animals with organism after treatment/animals treated) (Pneumocystis carinii; [8])	Giemsa Stain I/T (animals with organism after treatment/animals treated) (Pneumocystis carinii; oral 1 mg/kg/day (x21))	Silver stain I/T (animals with organism after treatment/animals treated) (Pneumocystis carinii; oral 1 mg/kg/day (x21))	Giemsa Stain Score (Pneumocystis carinii; oral 1 mg/kg/day (x21))	Silver stain Score (Pneumocystis carinii; oral 1 mg/kg/day (x21))	Giemsa Stain I/T (animals with organism after treatment/animals treated) (Pneumocystis carinii; oral 5 mg/kg/day (x21))	Silver stain I/T (animals with organism after treatment/animals treated) (Pneumocystis carinii; oral 5 mg/kg/day (x21))	Giemsa Stain Score (Pneumocystis carinii; oral 5 mg/kg/day (x21))	Silver stain Score (Pneumocystis carinii; oral 5 mg/kg/day (x21))	Parasitemia Day 6 [1, 9]	Mice Alive Day 26 [1, 9]	ΔMST (increase in mean survival time over the control) [1, 9]	Parasitemia Day 6 [1, 10]	Mice Alive Day 26 [1, 10]	Parasitemia Day 6 [1, 11]	Mice Alive Day 26 [1, 11]	IC50 [3]	other results
COc1cc(NC(C)CCCN)c2ncccc2c1 (stereo not shown) [Primaquine, reference compound]																					Number of animals with organism after treatment/Number of animals treated, Giesma Stain (Pneumocystis carinii; oral 5 mg/kg/day (x21), 5 mg/kg/day): 10/10; Number of animals with organism after treatment/Number of animals treated, Giesma Stain (Pneumocystis carinii; oral 10 mg/kg/day (x21), 10 mg/kg/day): 5/10; Mice surviving 60 days/Mice infected and treated ([1]; oral dose 1 mg/kg/day (total dose 3 mg/kg)): 0/7; Mice surviving 60 days/Mice infected and treated ([1]; oral dose 4 mg/kg/day (total dose 12 mg/kg)): 0/7; Mice surviving 60 days/Mice infected and treated ([1]; oral dose 16 mg/kg/day (total dose 48 mg/kg)): 1/7; Mice surviving 60 days/Mice infected and treated ([1]; oral dose 64 mg/kg/day (total dose 192 mg/kg)): 3/7; Monkeys infected and treated/cured (P. cynomolgi; 0.316 mg/kg/day x7, orally): 0/2; Monkeys infected and treated/cured (P. cynomolgi; 1.0 mg/kg/day x7, orally): 1/2
COc1cc(NC(C)CCCN)c2nccc(C)c2c1Oc1ccc(Cl)c(Cl)c1 (single isomer, unassigned; (-)) [Y, (−)-8-[(4-amino-1-methylbutyl)amino]-5-(3,4-dichlorophenoxy)-6-methoxy-4-methylquinoline succinate]	0.0	0.0	0/10	0/10	0/10	0/10	0.0	0.0	0/10	0/10	0.0	0.0	0.2	0/0	11.6 days	0.0	4/5	0.0	5/5	11 µM	activity in the mouse model of PCP, enantiomer comparison (Pneumocystis carinii; (−) versus (+) enantiomer of DN3-27-1): significantly greater activity than the (+) enantiomer; ΔMST (increase in mean survival time over the control) [1, 10]: 13.6 days; IC50 ([2]; succinate): 13.5 µM; IC50 [4]: 17.5 µM; IC50 ([5]; succinate): 27 µM; Mice surviving day 60/Mice infected and treated ([6]; day of treatment 2 (Table 5), listed as Y Enantiomer, succinate, 2 mg/kg): 5/5; Mice surviving day 60/Mice infected and treated ([6]; day of treatment -2 (Table 5), listed as Y Enantiomer, succinate, 2 mg/kg): 1/5; Mice surviving day 60/Mice infected and treated ([6]; day of treatment -3 (Table 5)): 0/5; Mice surviving day 60/Mice infected and treated ([6]; day of treatment -4 (Table 5)): 0/5; Mice surviving day 60/Mice infected and treated ([6]; day of treatment -5 (Table 5)): 0/5
COc1cc(NC(C)CCCN)c2nccc(C)c2c1Oc1ccc(Cl)c(Cl)c1 (single isomer, unassigned; (+)) [X, (+) 8-[(4-amino-1-methylbutyl)amino]-5-(3,4-dichlorophenoxy)-6-methoxy-4-methylquinoline succinate]	0.55 ± 0.16	1.15 ± 0.16	6/10	10/10	0/10	0/10	0.0	0.0	0/10	0/10	0.0	0.0	28.2	0/5	0 days	27.4	0/5	1.1	0/5	34 µM	Giemsa Stain I/T (animals with organism after treatment/animals treated) (Pneumocystis carinii; oral 0.5 mg/kg/day (x21)): 2/10; Silver stain I/T (animals with organism after treatment/animals treated) (Pneumocystis carinii; oral 0.5 mg/kg/day (x21)): 2/10; Giemsa Stain Score (Pneumocystis carinii; oral 0.5 mg/kg/day (x21)): 0.20 ± 0.10; Silver stain Score (Pneumocystis carinii; oral 0.5 mg/kg/day (x21)): 0.1 ± 0.1; ΔMST (increase in mean survival time over the control) ([1]; 1 mg/kg/day, 3 mg/kg total): 6 days; ΔMST (increase in mean survival time over the control) ([1]; 4 mg/kg/day, 12 mg/kg total): 11 days; IC50 ([2]; Trypanosoma, 48 h): 8.3 µM; IC50 [4]: 36 µM; IC50 ([5]; Trypanosoma, 48 h): 37 µM; Mice surviving day 60/Mice infected and treated ([6]; day of treatment 2 (Table 5), listed as X Enantiomer, succinate, 2 mg/kg): 0/5; Mice surviving day 60/Mice infected and treated ([6]; day of treatment -2 (Table 5), listed as X Enantiomer, succinate, 2 mg/kg): 0/5; Mice surviving day 60/Mice infected and treated ([6]; day of treatment -3 (Table 5)): 0/5; Mice surviving day 60/Mice infected and treated ([6]; day of treatment -4 (Table 5)): 0/5; Mice surviving day 60/Mice infected and treated ([6]; day of treatment -5 (Table 5)): 0/5
COc1cc(NC(C)CCCN)c2ncccc2c1 (single isomer, unassigned; (+)) [(+) Primaquine, reference compound]																					Number of animals with organism after treatment/Number of animals treated, Giesma Stain (Pneumocystis carinii; oral 2 mg/kg/day (x21)): 10/10; Number of animals with organism after treatment/Number of animals treated, Giesma Stain (Pneumocystis carinii; oral 5 mg/kg/day (x21), listed as (+) Enantiomer, 5 mg/kg/day): 7/10; Number of animals with organism after treatment/Number of animals treated, Giesma Stain (Pneumocystis carinii; oral 10 mg/kg/day (x21), listed as (+) Enantiomer, 10 mg/kg/day): 1/10; toxicity relative to the l-form [7]: approximately 4 times

— patent US6376511B2, “8-aminoquinolines” (The University of Mississippi, priority 1999, dated 2002)
